# Measurements from patent US20220023278A1, “ANTI-AGING METHOD COMPRISING APPLYING JWA GENE” (Simcere Pharmaceutical Co., Ltd., priority 2019, published 2022).
# What was measured:
# [1] = tested on: 12-month-old mice; assay: Feeding 12-month-old mice with test feed containing 1 g/kg JAC-4; type: in vivo
# Protocol: 12-month-old mice were housed in specific pathogen free (SPF) conditions at an ambient temperature of 22±2° C. and a relative humidity of 40%-60%, in day/night cycles of 12 h/12 h simulated by lighting. Mice were fed with sterile acidified water, common feeds (without compound JAC-4) or test feeds (with compound JAC-4).
# In general, the daily feed consumption of each mouse is about 10% of its body weight. Therefore, when the mice consume 1 g/kg of JAC-4 experimental feed, it is equivalent to the daily intake of 100 mg/kg of JAC-4. The mice were weighed every two weeks from the start of feeding and scored on the aging appearance every two weeks from the sixth week. The higher the score, the more obvious the aging appearance. The mice were photographed monthly and changes in appearance were recorded. In all the experiments attention was paid to ethical guidelines for the investigation of experimental pain in conscious animals.
# [2] = tested on: JWA gene; assay: JWA reporter gene assay (dual-luciferase) in HBE cells; type: cell-based, human; conditions: 24 hours treatment
# Description: 2012 bp upstream of the JWA transcription start site (referred to “JWA promoter sequence” hereafter) was amplified by RT-PCR according to the human-derived JWA promoter sequence (FIG. 35), and inserted into a pGL3-Neo vector by using KpnI and NheI restriction enzyme sites, thereby yielding a recombinant vector (FIG. 36) containing the JWA promoter sequence. The recombinant vector was transferred into E. coli. (DH5a). Positive clones were sequenced to verify accuracy, thereby obtaining a neomycin-resistant reporter plasmid containing the JWA gene promoter. The plasmid and corresponding strains were stored at −70° C. for use.
# Human bronchial epithelial (HBE) cells were cultured at a density of 3000 cells per well in a 384-well plate and allowed to adhere together. […]
# After incubation, the 384-well plate was taken out, allowing the reagents and cells to equilibrate to room temperature of 18-22° C. […] The luciferase activity was analyzed by using a Dual-Luciferase Reporter Assay kit (Promega) and measured by a chemiluminescence analyzer (3010 C chemiluminescence analyzer). […]
# [3] = HPLC analysis of compound in processed, Co60-sterilized test feed; type: physicochemical; conditions: pelleted feed, Co60 irradiation
# Description: The compound JAC-4 (purity>99%) was mixed with an equal amount of standard mouse feed. Specifically, 1 g of compound JAC-4 was thoroughly mixed with 1 g of basic feed materials; 2 g of the mixture was thoroughly mixed with 2 g of basic feed materials; 4 g of the mixture was thoroughly mixed with 4 g of basic feed materials, and so on, thereby obtaining two test feeds respectively containing 1 g/kg and 2 g/kg of the compound JAC-4. According to the standard operating procedures for feed, the test feeds were processed into pellets, vacuum packaged, and sterilized by a Co60 source irradiation. The feed processing was entrusted to a professional company. To verify that the compound JAC-4 was evenly distributed in the mixed feeds and not damaged in the structure during processing, the sterilized feeds were randomly sampled and fully extracted with organic solvents. The content of the compound JAC-4 was then measured by High Performance Liquid Chromatography and it was confirmed that the compound JAC-4 was not damaged and the content thereof met the requirements (FIGS. 38-40).
# [4] = tested on: JWA protein; assay: Western blot of JWA protein expression in HBE cells; type: cell-based, human; conditions: 24 hours and 48 hours, 1, 10, and 100 μmol/L
# Protocol: The HBE cells in the logarithmic growth phase were digested, plated at a density of 5×10^5/cell onto a 60 mm cell culture dish, and incubated in different doses of the compound JAC-4 for 24 hours or 48 hours, respectively. The cells were then treated with 0.18 mL of radio immunoprecipitation assay (RIPA, containing 0.5% PMSF) cell lysate for protein extraction, and centrifuged at 12,000×g for 15 minutes. The supernatant was collected and the protein concentration was measured. The proteins were heated and separated by electrophoresis through 12.5% polyacrylamide gel. 70 μg of the heated proteins was loaded into each well and separated by electrophoresis at 60 V for 30 minutes and 90 V for 1-1.5 hours. The proteins were then transferred from the gel to a PVDF membrane using a mini-genie transfer apparatus. The PVDF membrane was blocked with 5% skim milk, incubated at room temperature for 1-2 hours, and washed with TBST (containing 0.1% Tween 20). The washing step was repeated 3 times for 5 minutes each time. The blocked membrane was incubated overnight with primary antibody at 4° C., and then washed with TBS (containing 0.1% Tween 20). The washing step was repeated 3 times for 5 minutes each time. The blocked membrane was incubated at room temperature for 1-2 hours with secondary antibody, and then washed with TBST (containing 0.1% Tween 20). […]
# [5] = tested on: naturally aging mice (24 months old); assay: Feeding naturally aging 24-month-old mice with test feed containing 2 g/kg JAC-4; type: in vivo; conditions: test feed 2 g/kg, 10 weeks
# Protocol: Feeding 24-month-old mice with the test feed containing 2 g/kg of the compound JAC-4 (equivalent to 200 mg JAC-4/kg body weight).
# Mice were housed in the same conditions as Example 12. After feeding for 10 weeks, the mice were anesthetized. The whole blood was collected, allowed to stand for 30 min at room temperature, and centrifuged at 3000 rpm for 15 min. The supernatant, i.e., serum, was collected and analyzed by Hitachi 7100 automatic biochemical analyzer. Liver, spleen and kidney tissues of the mice were isolated on ice, fixed with 4% paraformaldehyde, or frozen at −80° C. The fixed tissues were processed into a paraffin section or frozen section with a thickness of 5 μm, stained with HE to visualize the morphological and pathological changes in the liver, spleen and kidney. The liver section was stained with oil red O for fat deposition and stained with periodic acid-Schiff (PAS) for glycogen. Total protein was extracted from the liver and spleen frozen at −80° C., and cell membrane proteins were extracted from the liver frozen at −80° C. Western blot was performed to detect the expression of JWA protein in liver and spleen tissues, the expression of p-AKT, AKT, p-GSK3β and GSK3β proteins in liver tissues, and the expression of glucose transporter (Glut 2) in cell membrane proteins of liver tissues. A biochemical kit (purchased from Nanjing Jiancheng Bioengineering Institute, Nanjing, China) was used to detect the activities of Superoxide dismutase (SOD), as well as the main rate-limiting enzymes of glucose and lipid metabolism in liver tissues. In all the experiments attention was paid to ethical guidelines for the investigation of experimental pain in conscious animals.
# [6] = test feed 1 g/kg vs common feed
structure (smiles),measurement,setting,value
c1ccc(CSc2nnc(C3COc4ccccc4O3)o2)nc1 (centres unmarked) [JAC-4],body weight,"[1]; 22nd week, test feed 1 g/kg (100 mg/kg daily) vs common feed",no statistical difference
same,hair loss,[1]; [6],significant decrease
same,score of aging appearance,[1]; [6],significant decrease
same,activation of JWA gene expression (luciferase reporter),[2],sharp dose-effect relationship
same,integrity of compound in feed after processing and sterilization,[3],not damaged
same,expression level of JWA protein,[4],enhanced
same,SOD in the liver,[5],increase
same,SOD in the serum,[5],increase
same,glycogen synthase in the liver,[5],increased
same,rate-limiting enzyme related to glucose decomposition in the liver,[5],increased
same,serum glucose,[5],significantly reduced
same,serum triglycerides,[5],significantly reduced
same,age-related inflammatory cell infiltration around the central vein of the liver,[5]; HE staining,significantly reduced
same,"morphology of liver, kidney and spleen",[5]; HE staining,did not produce observable abnormal changes
same,glycogen synthesis in the liver,[5]; PAS staining,increased
same,AKT phosphorylation in liver,[5]; Western blot,activated
same,GSK3β in liver,[5]; Western blot,inhibited
same,Glut 2 expression in liver cell membranes,[5]; Western blot,increased
same,expression of JWA protein in liver tissue,[5]; Western blot,increased significantly
same,expression of JWA protein in spleen tissue,[5]; Western blot,increased significantly
